Here are results for 19 compounds from US20240043404A1 (AbbVie Inc., priority 2009, published 2024).

For this assay, the system named is RS4;11 cells. In words: RS4;11 cell viability assay (CellTiter Glo).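 Also: acute lymphoblastic leukemia line RS4,11, EC50 derived from percentage of viable cells after treatment relative to untreated controls, cell killing taken as a measure of Bcl-2 inhibition.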 It counts as cell-based, human. To be noted: Homo sapiens, RS4-11, 48 h, 50,000 cells per well, 10% human serum, 48 hours; read-out: RS4; 11 EC50 Values. (Cellular ATP, detected with luciferase, serves as a proxy for viable cell number.)
Method: The acute lymphoblastic leukemia (ALL) cell line RS4;11 was used as the primary human cell line to assess the cellular activity of Bcl-2 selective agents in vitro and their efficacy in vivo.
Cell cytotoxicity EC50 values were assessed using CellTiter Glo (Promega) according to the manufacturer's recommendations. The EC50 values were determined as a percentage of viable cells following treatment compared to the untreated control cells.
Turning to `COCCOCCS(=O)(=O)c1ccc(S(=O)(=O)NC(=O)c2ccc(N3CCN(CC4=C(c5ccc(Cl)cc5)CC(C)(C)CC4)CC3)cc2Oc2cnc3[nH]ccc3c2)cc1[N+](=O)[O-]` [Example 59, 4-(4-{[2-(4-chlorophenyl)-4,4-dimethylcyclohex-1-en-1-yl]methyl}piperazin-1-yl)-N-[(4-{[2-(2-methoxyethoxy)ethyl]sulfonyl}-3-nitrophenyl)sulfonyl]-2-(1H-pyrrolo[2,3-b]pyridin-5-yloxy)benzamide], the EC50 came out at 722 nM. Turning to `CC1(C)CCC(CN2CCN(c3ccc(C(=O)NS(=O)(=O)c4ccc(O[C@H]5CC[C@H](N6CCOCC6)CC5)c([N+](=O)[O-])c4)c(Oc4cnc5[nH]ccc5c4)c3)CC2)=C(c2ccc(Cl)cc2)C1` [Example 60, Trans-4-(4-{[2-(4-chlorophenyl)-4,4-dimethylcyclohex-1-en-1-yl]methyl}piperazin-1-yl)-N-({4-[(4-morpholin-4-ylcyclohexyl)oxy]-3-nitrophenyl}sulfonyl)-2-(1H-pyrrolo[2,3-b]pyridin-5-yloxy)benzamide], the EC50 stood at 59.5 nM. Next, `CC1(C)CCC(CN2CCN(c3ccc(C(=O)NS(=O)(=O)c4ccc(NCCC#N)c([N+](=O)[O-])c4)c(Oc4cnc5[nH]ccc5c4)c3)CC2)=C(c2ccc(Cl)cc2)C1` [Example 62, 4-(4-{[2-(4-chlorophenyl)-4,4-dimethylcyclohex-1-en-1-yl]methyl}piperazin-1-yl)-N-({4-[(2-cyanoethyl)amino]-3-nitrophenyl}sulfonyl)-2-(1H-pyrrolo[2,3-b]pyridin-5-yloxy)benzamide]: 25.1 nM; `CC1(C)CC(c2ccc(Cl)cc2)=C(CN2CCN(c3ccc(C(=O)NS(=O)(=O)c4ccc(N[C@H]5CC[C@@H](N6CCOCC6)CC5)c([N+](=O)[O-])c4)c(Oc4cnc5[nH]ccc5c4)c3)CC2)CO1` [Example 63, Cis-4-(4-{[4-(4-chlorophenyl)-6,6-dimethyl-5,6-dihydro-2H-pyran-3-yl]methyl}piperazin-1-yl)-N-({4-[(4-morpholin-4-ylcyclohexyl)amino]-3-nitrophenyl}sulfonyl)-2-(1H-pyrrolo[2,3-b]pyridin-5-yloxy)benzamide]: 7.51 nM. To `CC1(C)CCC(CN2CCN(c3ccc(C(=O)NS(=O)(=O)c4ccc(N[C@H]5CC[C@H](N(CC6CC6)CC6CC6)CC5)c([N+](=O)[O-])c4)c(Oc4cnc5[nH]ccc5c4)c3)CC2)=C(c2ccc(Cl)cc2)C1` [Example 64, Trans-N-{[4-({4-[bis(cyclopropylmethyl)amino]cyclohexyl}amino)-3-nitrophenyl]sulfonyl}-4-(4-{[2-(4-chlorophenyl)-4,4-dimethylcyclohex-1-en-1-yl]methyl}piperazin-1-yl)-2-(1H-pyrrolo[2,3-b]pyridin-5-yloxy)benzamide] belongs 0.25 nM; to `CN1CCC(CNc2ccc(S(=O)(=O)NC(=O)c3ccc(N4CCN(CC5=C(c6ccc(Cl)cc6)CC(C)(C)CC5)CC4)cc3Oc3cnc4[nH]ccc4c3)cc2[N+](=O)[O-])CC1` [Example 65, 4-(4-{[2-(4-chlorophenyl)-4,4-dimethylcyclohex-1-en-1-yl]methyl}piperazin-1-yl)-N-[(4-{[(1-methylpiperidin-4-yl)methyl]amino}-3-nitrophenyl)sulfonyl]-2-(1H-pyrrolo[2,3-b]pyridin-5-yloxy)benzamide], 0.25 nM; to `CC1(C)CCC(CN2CCN(c3ccc(C(=O)NS(=O)(=O)c4ccc(NCC5COCCN5)c([N+](=O)[O-])c4)c(Oc4cnc5[nH]ccc5c4)c3)CC2)=C(c2ccc(Cl)cc2)C1` (stereo not shown) [Example 66, 4-(4-{[2-(4-chlorophenyl)-4,4-dimethylcyclohex-1-en-1-yl]methyl}piperazin-1-yl)-N-({4-[(morpholin-3-ylmethyl)amino]-3-nitrophenyl}sulfonyl)-2-(1H-pyrrolo[2,3-b]pyridin-5-yloxy)benzamide], 18.9 nM.

On to `CN1CCN(Nc2ccc(S(=O)(=O)NC(=O)c3ccc(N4CCN(CC5=C(c6ccc(Cl)cc6)CC(C)(C)OC5)CC4)cc3Oc3cnc4[nH]ccc4c3)cc2[N+](=O)[O-])CC1` [Example 67, 4-(4-{[4-(4-chlorophenyl)-6,6-dimethyl-5,6-dihydro-2H-pyran-3-yl]methyl}piperazin-1-yl)-N-({4-[(4-methylpiperazin-1-yl)amino]-3-nitrophenyl}sulfonyl)-2-(1H-pyrrolo[2,3-b]pyridin-5-yloxy)benzamide], for which the EC50 stood at 49.5 nM. `CC1(C)CCC(CN2CCN(c3ccc(C(=O)NS(=O)(=O)c4ccc(OCC#CCN5CCOCC5)c([N+](=O)[O-])c4)c(Oc4cnc5[nH]ccc5c4)c3)CC2)=C(c2ccc(Cl)cc2)C1` [Example 68, 4-(4-{[2-(4-chlorophenyl)-4,4-dimethylcyclohex-1-en-1-yl]methyl}piperazin-1-yl)-N-({4-[(4-morpholin-4-ylbut-2-ynyl)oxy]-3-nitrophenyl}sulfonyl)-2-(1H-pyrrolo[2,3-b]pyridin-5-yloxy)benzamide]: the EC50 amounted to 108 nM. Turning to `C#Cc1cc(S(=O)(=O)NC(=O)c2ccc(N3CCN(CC4=C(c5ccc(Cl)cc5)CC(C)(C)CC4)CC3)cc2Oc2cnc3[nH]ccc3c2)cnc1OCC1CCOCC1` [Example 69, 4-(4-{[2-(4-chlorophenyl)-4,4-dimethylcyclohex-1-en-1-yl]methyl}piperazin-1-yl)-N-{[5-ethynyl-6-(tetrahydro-2H-pyran-4-ylmethoxy)pyridin-3-yl]sulfonyl}-2-(1H-pyrrolo[2,3-b]pyridin-5-yloxy)benzamide], the EC50 was 1720 nM. In the case of `CC1(C)CCC(CN2CCN(c3ccc(C(=O)NS(=O)(=O)c4ccc5nc[nH]c(=O)c5c4)c(Oc4cnc5[nH]ccc5c4)c3)CC2)=C(c2ccc(Cl)cc2)C1` [Example 70, 4-(4-{[2-(4-chlorophenyl)-4,4-dimethylcyclohex-1-en-1-yl]methyl}piperazin-1-yl)-N-[(4-oxo-3,4-dihydroquinazolin-6-yl)sulfonyl]-2-(1H-pyrrolo[2,3-b]pyridin-5-yloxy)benzamide], the EC50 is above 5000 nM. Next, `O=C(NS(=O)(=O)c1ccc(N[C@H]2CC[C@H](N3CCOCC3)CC2)c([N+](=O)[O-])c1)c1ccc(N2CCN(CC3=C(c4ccc(Cl)cc4)CCC4(CCCC4)C3)CC2)cc1Oc1cnc2[nH]ccc2c1` [Example 71, Trans-4-(4-{[8-(4-chlorophenyl)spiro[4.5]dec-7-en-7-yl]methyl}piperazin-1-yl)-N-({4-[(4-morpholin-4-ylcyclohexyl)amino]-3-nitrophenyl}sulfonyl)-2-(1H-pyrrolo[2,3-b]pyridin-5-yloxy)benzamide]: 91.6 nM; `CO[C@H]1CC[C@@H](CNc2ccc(S(=O)(=O)NC(=O)c3ccc(N4CCN(CC5=C(c6ccc(Cl)cc6)CC(C)(C)OC5)CC4)cc3Oc3cnc4[nH]ccc4c3)cc2[N+](=O)[O-])CC1` [Example 72, Cis-4-(4-{[4-(4-chlorophenyl)-6,6-dimethyl-5,6-dihydro-2H-pyran-3-yl]methyl}piperazin-1-yl)-N-[(4-{[(4-methoxycyclohexyl)methyl]amino}-3-nitrophenyl)sulfonyl]-2-(1H-pyrrolo[2,3-b]pyridin-5-yloxy)benzamide]: 7.51 nM.

As to `O=C(NS(=O)(=O)c1ccc(OCC2(F)CCOCC2)c([N+](=O)[O-])c1)c1ccc(N2CCN(CC3=C(c4ccc(Cl)cc4)CCC4(CCCC4)C3)CC2)cc1Oc1cnc2[nH]ccc2c1` [Example 73, 4-(4-{[8-(4-chlorophenyl)spiro[4.5]dec-7-en-7-yl]methyl}piperazin-1-yl)-N-({4-[(4-fluorotetrahydro-2H-pyran-4-yl)methoxy]-3-nitrophenyl}sulfonyl)-2-(1H-pyrrolo[2,3-b]pyridin-5-yloxy)benzamide], the EC50 was 23.7 nM. In the case of `CO[C@H]1CC[C@H](CNc2ccc(S(=O)(=O)NC(=O)c3ccc(N4CCN(CC5=C(c6ccc(Cl)cc6)CCC6(CCCC6)C5)CC4)cc3Oc3cnc4[nH]ccc4c3)cc2[N+](=O)[O-])CC1` [Example 74, Trans-4-(4-{[8-(4-chlorophenyl)spiro[4.5]dec-7-en-7-yl]methyl}piperazin-1-yl)-N-[(4-{[(4-methoxycyclohexyl)methyl]amino}-3-nitrophenyl)sulfonyl]-2-(1H-pyrrolo[2,3-b]pyridin-5-yloxy)benzamide], the EC50 was determined as 57 nM. For the compound `CC1(C)CCC(c2ccc(Cl)cc2)=C(CN2CCN(c3ccc(C(=O)NS(=O)(=O)c4ccc(NCC5CCOCC5)c([N+](=O)[O-])c4)c(Oc4cnc5[nH]ccc5c4)c3)CC2)C1` [Example 75, 4-(4-{[2-(4-chlorophenyl)-5,5-dimethylcyclohex-1-en-1-yl]methyl}piperazin-1-yl)-N-({3-nitro-4-[(tetrahydro-2H-pyran-4-ylmethyl)amino]phenyl}sulfonyl)-2-(1H-pyrrolo[2,3-b]pyridin-5-yloxy)benzamide], the EC50 came to 15.1 nM. Regarding `CC1(C)CCC(c2ccc(Cl)cc2)=C(CN2CCN(c3ccc(C(=O)NS(=O)(=O)c4cnc(OCC5CCOCC5)c(C#N)c4)c(Oc4cnc5[nH]ccc5c4)c3)CC2)C1` [Example 76, 4-(4-{[2-(4-chlorophenyl)-5,5-dimethylcyclohex-1-en-1-yl]methyl}piperazin-1-yl)-N-{[5-cyano-6-(tetrahydro-2H-pyran-4-ylmethoxy)pyridin-3-yl]sulfonyl}-2-(1H-pyrrolo[2,3-b]pyridin-5-yloxy)benzamide], the EC50 is 511 nM. `CC1(C)CCC(CN2CCN(c3ccc(C(=O)NS(=O)(=O)c4ccc(OCC5COCCN5C(=O)OC(C)(C)C)c([N+](=O)[O-])c4)c(Oc4cnc5[nH]ccc5c4)c3)CC2)=C(c2ccc(Cl)cc2)C1` (stereo not shown) [Example 77, tert-butyl 3-{[4-({[4-(4-{[2-(4-chlorophenyl)-4,4-dimethylcyclohex-1-en-1-yl]methyl}piperazin-1-yl)-2-(1H-pyrrolo[2,3-b]pyridin-5-yloxy)benzoyl]amino}sulfonyl)-2-nitrophenoxy]methyl}morpholine-4-carboxylate]: the EC50 worked out at 762 nM. To `CC1(C)CCC(CN2CCN(c3ccc(C(=O)NS(=O)(=O)c4ccc(OCC5COCCN5)c([N+](=O)[O-])c4)c(Oc4cnc5[nH]ccc5c4)c3)CC2)=C(c2ccc(Cl)cc2)C1` (stereo not shown) [Example 78, 4-(4-{[2-(4-chlorophenyl)-4,4-dimethylcyclohex-1-en-1-yl]methyl}piperazin-1-yl)-N-{[4-(morpholin-3-ylmethoxy)-3-nitrophenyl]sulfonyl}-2-(1H-pyrrolo[2,3-b]pyridin-5-yloxy)benzamide] belongs 12.5 nM.
